IC50 data for 34 compounds are collected here from patent US10689331B2, “IDO inhibitors” (Bristol-Myers Squibb Company, priority 2015, dated 2020).

T1 sequence (P14902 whole entry): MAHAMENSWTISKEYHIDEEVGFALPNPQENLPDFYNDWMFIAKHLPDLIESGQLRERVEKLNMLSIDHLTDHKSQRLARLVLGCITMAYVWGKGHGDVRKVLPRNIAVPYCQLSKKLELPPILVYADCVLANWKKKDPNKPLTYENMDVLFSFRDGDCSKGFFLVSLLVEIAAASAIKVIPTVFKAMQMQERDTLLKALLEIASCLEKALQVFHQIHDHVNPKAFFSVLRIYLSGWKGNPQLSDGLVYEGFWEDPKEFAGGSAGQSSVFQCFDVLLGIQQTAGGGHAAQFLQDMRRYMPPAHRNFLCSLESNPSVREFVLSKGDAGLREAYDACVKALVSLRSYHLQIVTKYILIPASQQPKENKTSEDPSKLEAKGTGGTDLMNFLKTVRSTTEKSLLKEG

The test concerns the target T1, human IDO1 (Homo sapiens, UniProt P14902).
T1 construct: expressed in transfected cells
The experiment in a line: HEK Human IDO-1 inhibition assay (kynurenine readout, Ehrlich reagent, absorbance 490 nm). The class given is cell-based. Conditions: human IDO1/HEK293 cells, incubated 20 hours with compound; 500 nM reference standard = 100% inhibition. Put shortly:
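HEK293 cells stably expressing human IDO1, treated with compound for 20 h at 37 °C in phenol red-free RPMI/10% FBS. Kynurenine detected after TCA (0.2% final, 50 °C, 30 min) by Ehrlich reagent absorbance at 490 nm; IC50 normalised to 500 nM reference standard (100%) and DMSO (0%).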
What is called IC50 is the concentration that inhibits the measured activity by half. With `CC(C)CN(c1ccc(OCC(=O)O)cc1NC(=O)Cc1ccc(Cl)c(F)c1)C1CCCCC1` [Example 54, 2-(3-(2-(4-chloro-3-fluorophenyl)acetamido)-4-(cyclohexyl(isobutyl)amino)phenoxy)acetic acid], the IC50 is at least 100 nM. Under `Cc1ccc(CC(=O)Nc2cc(OCC(=O)O)ccc2N(CC(C)C)C2CCCCC2)c(F)c1` [Example 55, 2-(4-(cyclohexyl(isobutyl)amino)-3-(2-(2-fluoro-4-methylphenyl)acetamido)phenoxy)acetic acid] stands below 100 nM; under `CC(C)CN(c1ccc(OCC(=O)O)cc1NC(=O)Cc1ccc(F)cc1F)C1CCCCC1` [Example 56, 2-(4-(cyclohexyl(isobutyl)amino)-3-(2-(2,4-difluorophenyl)acetamido)phenoxy)acetic acid], at least 100 nM. As for `CC(C)CN(c1ccc(OCC(=O)O)cc1NC(=O)Cc1ccc(F)cc1)C1CCCCC1` [Example 57, 2-(4-(cyclohexyl(isobutyl)amino)-3-(2-(4-fluorophenyl)acetamido)phenoxy)acetic acid], the figure is at least 100 nM. Regarding `CC(C)CN(c1ccc(OC(C)(C)C(=O)O)cc1NC(=O)Nc1ccc(Cl)cc1F)C1CCCCC1` [Example 91, 2-(3-(3-(4-chloro-2-fluorophenyl)ureido)-4-(cyclohexyl(isobutyl)amino)phenoxy)-2-methylpropanoic acid], the IC50 is below 5 nM. Take `Cc1ccc(NC(=O)Nc2cc(OC(C)(C)C(=O)O)ccc2N(CC(C)C)C2CCCCC2)cc1` [Example 92, 2-(4-(cyclohexyl(isobutyl)amino)-3-(3-(p-tolyl)ureido)phenoxy)-2-methylpropanoic acid]: the IC50 was below 5 nM. As for `CC(C)CN(c1ccc(OC2(C(=O)O)CC2)cc1NC(=O)Nc1ccc(Cl)cc1F)C1CCCCC1` [Example 93, 1-(3-(3-(4-chloro-2-fluorophenyl)ureido)-4-(cyclohexyl(isobutyl)amino)phenoxy)cyclopropanecarboxylic acid], the figure is below 5 nM. Consider `Cc1ccc(NC(=O)Nc2cc(OC3(C(=O)O)CC3)ccc2N(CC(C)C)C2CCCCC2)cc1` [Example 94, 1-(4-(cyclohexyl(isobutyl)amino)-3-(3-(p-tolyl)ureido)phenoxy)cyclopropanecarboxylic acid], for which the IC50 is below 5 nM. Turning to `Cc1ccc(NC(=O)Nc2cc(OCc3nnn[nH]3)c(F)cc2N(CC(C)C)CC(C)C)cc1` [Example 95, 1-(5-((1H-tetrazol-5-yl)methoxy)-2-(diisobutylamino)-4-fluorophenyl)-3-(p-tolyl)urea], the IC50 was below 100 nM.

With `CC(C)CN(c1ccc(OCc2nnn[nH]2)cc1NC(=O)Nc1ccc(Cl)cc1F)C1CCCCC1` [Example 96, 1-(5-((1H-tetrazol-5-yl)methoxy)-2-(cyclohexyl(isobutyl)amino)phenyl)-3-(4-chloro-2-fluorophenyl)urea], the IC50 was below 5 nM. Turning to `CC(C)CN(c1ccc(OCc2nnn[nH]2)cc1NC(=O)Nc1ccccc1F)C1CCCCC1` [Example 97, 1-(5-((1H-tetrazol-5-yl)methoxy)-2-(cyclohexyl(isobutyl)amino)phenyl)-3-(2-fluorophenyl)urea], the IC50 was below 5 nM. Turning to `CC(C)CN(c1ccc(OCC(=O)O)cc1NC(=O)Nc1ccc(Cl)cc1F)C1CCC(F)(F)CC1` [Example 98, 2-(3-(3-(4-Chloro-2-fluorophenyl)ureido)-4-((4,4-difluorocyclohexyl)(isobutyl)amino)-phenoxy)acetic acid], the IC50 is below 5 nM. As for `CC(C)CN(c1ccc(OCC(=O)O)cc1NC(=O)Nc1ccc(Br)cc1F)C1CCC(F)(F)CC1` [Example 99, 2-(3-(3-(4-Bromo-2-fluorophenyl)ureido)-4-((4,4-difluorocyclohexyl)(isobutyl)amino)-phenoxy)acetic acid], the IC50 was below 5 nM. On to `CCOc1ccc(NC(=O)Nc2cc(OCC(=O)O)ccc2N(CC(C)C)C2CCC(F)(F)CC2)cc1` [Example 100, 2-(4-((4,4-Difluorocyclohexyl)(isobutyl)amino)-3-(3-(4-ethoxyphenyl)ureido)phenoxy)acetic acid], for which the IC50 was at least 100 nM. Under `CC(C)CN(c1ncc(OCC(=O)O)cc1NC(=O)Nc1ccc(Cl)cc1F)C1CCCCC1` [Example 102, 2-((5-(3-(4-chloro-2-fluorophenyl)ureido)-6-(cyclohexyl(isobutyl)amino)pyridin-3-yl)oxy)acetic acid] stands below 5 nM; under `CC(C)CN(c1ncc(OCC(=O)NS(=O)(=O)C2CC2)cc1NC(=O)Nc1ccc(Cl)cc1F)C1CCCCC1` [Example 103, 2-((5-(3-(4-chloro-2-fluorophenyl)ureido)-6-(cyclohexyl(isobutyl)amino)pyridin-3-yl)oxy)-N-(cyclopropylsulfonyl)acetamide], below 5 nM. As for `CC(C)CN(c1c(F)cc(OCC(=O)O)cc1NC(=O)Nc1ccc(Cl)cc1F)C1CCCCC1` [Example 104, 2-(3-(3-(4-chloro-2-fluorophenyl)ureido)-4-(cyclohexyl(isobutyl)amino)-5-fluorophenoxy)acetic acid], the figure is below 5 nM; as for `CC(C)CN(c1c(F)cc(OCC(=O)NS(=O)(=O)C2CC2)cc1NC(=O)Nc1ccc(Cl)cc1F)C1CCCCC1` [Example 105, 2-(3-(3-(4-chloro-2-fluorophenyl)ureido)-4-(cyclohexyl(isobutyl)amino)-5-fluorophenoxy)-N-(cyclopropylsulfonyl)acetamide], below 5 nM.

On to `CC(C)CN(c1c(F)cc(OCC(=O)O)cc1NC(=O)Nc1cc(F)ccc1F)C1CCCCC1` [Example 106, 2-(4-(cyclohexyl(isobutyl)amino)-3-(3-(2,5-difluorophenyl)ureido)-5-fluorophenoxy)acetic acid], for which the IC50 is below 5 nM. Take `CC(C)CN(c1ccc(OCC(=O)O)c(F)c1NC(=O)Nc1ccc(Cl)cc1F)C1CCCCC1` [Example 107, 2-(3-(3-(4-chloro-2-fluorophenyl)ureido)-4-(cyclohexyl(isobutyl)amino)-2-fluorophenoxy)acetic acid]: the concentration for half-maximal inhibition (IC50) was at least 100 nM. Regarding `CC(C)CN(c1c(C#N)cc(OCC(=O)O)cc1NC(=O)Nc1ccc(Cl)cc1F)C1CCCCC1` [Example 108, 2-(3-(3-(4-chloro-2-fluorophenyl)ureido)-5-cyano-4-(cyclohexyl(isobutyl)amino)phenoxy)acetic acid], the IC50 was below 100 nM. As for `Cc1ccc(NC(=O)Nc2cc(OCC(=O)O)ccc2N(CC(C)C)C2CCCCC2)cc1` [Example 109, 2-(4-(cyclohexyl(isobutyl)amino)-3-(3-(p-tolyl)ureido)phenoxy)acetic acid], the IC50 was below 100 nM. As for `CC(C)CN(c1ccc(OCC(=O)O)cc1NC(=O)Cc1ccc(Cl)cc1F)C1CCCCC1` [Example 110, 2-(3-(2-(4-chloro-2-fluorophenyl)acetamido)-4-(cyclohexyl(isobutyl)amino)phenoxy)acetic acid], the figure is below 100 nM; as for `Cc1cnc(NC(=O)COc2ccc(N(CC(C)C)C3CCCCC3)c(NC(=O)Nc3ccc(Cl)cc3F)c2)s1` [Example 111, 2-(3-(3-(4-chloro-2-fluorophenyl)ureido)-4-(cyclohexyl(isobutyl)amino)phenoxy)-N-(5-methylthiazol-2-yl)acetamide], at least 100 nM. On to `Cc1ccc(NC(=O)Nc2cc(OCC(=O)O)ccc2N(CC(C)C)CC(C)C)cc1` [Example 112, 2-(4-(diisobutylamino)-3-(3-(p-tolyl)ureido)phenoxy)acetic acid], for which the IC50 is at least 100 nM. As for `C=C(C)CN(CCCC(F)(F)F)c1cc(F)c(OCC(=O)O)cc1NC(=O)Nc1ccc(Cl)cc1F` [Example 113, 2-(5-(3-(4-chloro-2-fluorophenyl)ureido)-2-fluoro-4-((2-methylallyl)(4,4,4-trifluorobutyl)amino)phenoxy)acetic acid], the figure is below 5 nM; as for `Cc1cc(NC(=O)Nc2cc(OCC(=O)O)c(F)cc2N(CC(C)C)C2CCCCC2)on1` [Example 114, 2-(4-(cyclohexyl(isobutyl)amino)-2-fluoro-5-(3-(3-methylisoxazol-5-yl)ureido)phenoxy)acetic acid], at least 100 nM; as for `CC(C)CN(c1cc(F)c(OCC(=O)O)cc1NC(=O)Nc1ccc(Cl)cc1F)C1CCCCC1` [Example 115, 2-(5-(3-(4-chloro-2-fluorophenyl)ureido)-4-(cyclohexyl(isobutyl)amino)-2-fluorophenoxy)acetic acid], below 5 nM.

Consider `COCCN(c1ccc(OCC(=O)O)cc1NC(=O)Nc1ccc(Cl)cc1F)C1CCCCC1` [Example 116, 2-(3-(3-(4-chloro-2-fluorophenyl)ureido)-4-(cyclohexyl(2-methoxyethyl)amino)phenoxy)acetic acid], for which the IC50 was below 100 nM. As for `COCCN(c1ccc(OCC(=O)O)cc1NC(=O)Nc1ccc(F)cc1F)C1CCCCC1` [Example 117, 2-(4-(cyclohexyl(2-methoxyethyl)amino)-3-(3-(2,4-difluorophenyl)ureido)phenoxy)acetic acid], the figure is at least 100 nM; as for `O=C(O)COc1ccc(N(CC2CC2)C2CCCCC2)c(NC(=O)Nc2ccc(Cl)cc2F)c1` [Example 118, 2-(3-(3-(4-chloro-2-fluorophenyl)ureido)-4-(cyclohexyl(cyclopropylmethyl)amino)phenoxy)acetic acid], below 100 nM; as for `CC(C)CN(c1cc(Cl)c(OCC(=O)O)cc1NC(=O)Nc1ccc(Cl)cc1F)C1CCCCC1` [Example 119, 2-(2-chloro-5-(3-(4-chloro-2-fluorophenyl)ureido)-4-(cyclohexyl(isobutyl)amino)phenoxy)acetic acid], below 100 nM. As for `C=C(C)CN(CCCC(F)(F)F)c1cc(F)c(OCC(=O)O)cc1NC(=O)Nc1ccc(C)cc1` [Example 120], the figure is below 100 nM; as for `C=C(C)CN(CCCC(F)(F)F)c1cc(F)c(OCC(=O)O)cc1NC(=O)Nc1cc(C)no1` [Example 121, 2-(2-fluoro-4-((2-methylallyl)(4,4,4-trifluorobutyl)amino)-5-(3-(3-methylisoxazol-5-yl)ureido)phenoxy)acetic acid], below 100 nM.
